Tests used:
Type in all cases: in vivo
Abutilon theophrasti [1] = assay: Post-emergence herbicidal efficacy at 320 g/ha, ABUTH; settings: rated visually after about 3 weeks vs untreated controls, 100% = plants have died
Procedure, shortened: (§1)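 Visual % activity vs untreated controls, ~3 wk after spraying; 100% = plants dead, 0% = like control. Greenhouse pot plants in sandy loam, treated at one-leaf stage (2–3 wk post-sowing). WP/EC in water + 0.5% additive, 600 L/ha spray volume.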

Alopecurus myosuroides [2] = assay: Post-emergence herbicidal efficacy at 320 g/ha, ALOMY; settings: rated visually after about 3 weeks vs untreated controls, 100% = plants have died
From the text: (§2) Unwanted plants/weeds: • ABUTH: Abutilon theophrasti • ALOMY: Alopecurus myosuroides • AMARE: Amaranthus retroflexus • DIGSA: Digitaria sanguinalis • ECHCG: Echinochloa crus-galli • KCHSC: Kochia scoparia • LOLRI: Lolium rigidum • MATIN: Matricaria inodora • POAAN: Poa annua • POLCO: Polygonum convolvulus • SETVI: Setaria viridis • STEME: Stellaria media • VERPE: Veronica persica • VIOTR: Viola tricolor A. Post-Emergence Herbicidal Efficacy at 320 g/ha
Seeds of mono- and dicotyledonous weed plants were placed in plastic pots in sandy loam soil (doubly sown with in each case one species of mono- or dicotyledonous weed plants per pot), covered with soil and cultivated in a greenhouse under controlled growth conditions. 2 to 3 weeks after sowing, the test plants were treated at the one-leaf stage. The compounds of the invention, formulated in the form of wettable powders (WP) or as emulsion concentrates (EC), were applied to the green parts of the plants as aqueous suspension or emulsion with addition of 0.5% additive at a water application rate equivalent to 600 litres per hectare. After the test plants had been kept in the greenhouse under optimum growth conditions for about 3 weeks, the activity of the preparations was rated visually in comparison to untreated controls.
(§3) For example, 100% activity=the plants have died, 0% activity=like control plants.
Tables A1 to A10 below show the effects of selected compounds of the general formula (I) according to Table 1 on various harmful plants and at an application rate corresponding to 320 g/ha, which were obtained by the trial procedure specified above.

Amaranthus retroflexus [3] = assay: Post-emergence herbicidal efficacy at 320 g/ha, AMARE; settings: rated visually after about 3 weeks vs untreated controls, 100% = plants have died
Procedure, shortened: as §1

Digitaria sanguinalis [4] = assay: Post-emergence herbicidal efficacy at 320 g/ha, DIGSA; settings: rated visually after about 3 weeks vs untreated controls, 100% = plants have died
Procedure, shortened: as §1

Echinochloa crus-galli [5] = assay: Post-emergence herbicidal efficacy at 320 g/ha, ECHCG; settings: rated visually after about 3 weeks vs untreated controls, 100% = plants have died
Procedure, shortened: as §1

Kochia scoparia [6] = assay: Post-emergence herbicidal efficacy at 320 g/ha, KCHSC; settings: rated visually after about 3 weeks vs untreated controls, 100% = plants have died
Procedure, shortened: as §1

Poa annua [7] = assay: Post-emergence herbicidal efficacy at 320 g/ha, POAAN; settings: rated visually after about 3 weeks vs untreated controls, 100% = plants have died
Procedure, shortened: as §1

Stellaria media [8] = assay: Post-emergence herbicidal efficacy at 320 g/ha, STEME; settings: rated visually after about 3 weeks vs untreated controls, 100% = plants have died
Procedure, shortened: as §1

Veronica persica [9] = assay: Post-emergence herbicidal efficacy at 320 g/ha, VERPE; settings: rated visually after about 3 weeks vs untreated controls, 100% = plants have died
Procedure, shortened: as §1

Abutilon theophrasti [10] = assay: Post-emergence herbicidal efficacy at 80 g/ha, ABUTH; settings: rated visually after about 3 weeks vs untreated controls, 100% = plants have died
From the text: as §2
(§4) Seeds of monocotyledonous and dicotyledonous weeds and crop plants were placed in sandy loam in plastic or organic planting pots, covered with soil and cultivated in a greenhouse under controlled growth conditions. 2 to 3 weeks after sowing, the test plants were treated at the one-leaf stage. The compounds of the invention, formulated in the form of wettable powders (WP) or as emulsion concentrates (EC), were then sprayed onto the green parts of the plants as aqueous suspension or emulsion with addition of 0.5% additive at a water application rate of 600 l/ha (converted). After the test plants had been kept in the greenhouse under optimum growth conditions for about 3 weeks, the activity of the preparations was rated visually in comparison to untreated controls. For example, 100% activity=the plants have died, 0% activity=like control plants.
(§5) Tables B1 to B11 below show the effects of selected compounds of the general formula (I) according to Table 1 on various harmful plants and an application rate corresponding to 80 g/ha, which were obtained by the experimental procedure mentioned above.

Amaranthus retroflexus [11] = assay: Post-emergence herbicidal efficacy at 80 g/ha, AMARE; settings: rated visually after about 3 weeks vs untreated controls, 100% = plants have died
Procedure, shortened: (§6)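 Visual damage ratings, 0% (like untreated controls) to 100% (plants dead), were taken about 3 weeks after treatment. Plants were sprayed at the one-leaf stage with WP- or EC-formulated compound in water containing 0.5% additive, 600 l/ha, having been raised in sandy loam in the greenhouse.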

Kochia scoparia [12] = assay: Post-emergence herbicidal efficacy at 80 g/ha, KCHSC; settings: rated visually after about 3 weeks vs untreated controls, 100% = plants have died
Procedure, shortened: as §6

Setaria viridis [13] = assay: Post-emergence herbicidal efficacy at 80 g/ha, SETVI; settings: rated visually after about 3 weeks vs untreated controls, 100% = plants have died
From the text: as §2, §4, §5

Veronica persica [14] = assay: Post-emergence herbicidal efficacy at 80 g/ha, VERPE; settings: rated visually after about 3 weeks vs untreated controls, 100% = plants have died
Procedure, shortened: as §6

Viola tricolor [15] = assay: Post-emergence herbicidal efficacy at 80 g/ha, VIOTR; settings: rated visually after about 3 weeks vs untreated controls, 100% = plants have died
From the text: as §2, §4, §5

Abutilon theophrasti [16] = assay: Pre-emergence herbicide efficacy at 320 g/ha, ABUTH; settings: scored visually after about 3 weeks vs untreated controls, 100% = plants have died
From the text: as §2
(§7) Seeds of mono- and dicotyledonous weed plants were placed in plastic pots in sandy loam soil (doubly sown with one species each of mono- or dicotyledonous weed plants per pot) and covered with soil. The compounds of the invention, formulated in the form of wettable powders (WP) or as emulsion concentrates (EC), were then applied to the surface of the covering soil as aqueous suspension or emulsion with addition of 0.5% additive at a water application rate of 600 litres per hectare (converted). After the treatment, the pots were placed in a greenhouse and kept under good growth conditions for the test plants. After about 3 weeks, the efficacy of the preparations was scored visually in comparison with untreated controls as percentages.
as §3
(§8) Tables C1 to C12 below show the effects of selected compounds of the general formula (I) according to Table 1 on various harmful plants and at an application rate corresponding to 320 g/ha, which were obtained by the trial procedure specified above.

Alopecurus myosuroides [17] = assay: Pre-emergence herbicide efficacy at 320 g/ha, ALOMY; settings: scored visually after about 3 weeks vs untreated controls, 100% = plants have died
From the text: as §2, §7, §3, §8

Amaranthus retroflexus [18] = assay: Pre-emergence herbicide efficacy at 320 g/ha, AMARE; settings: scored visually after about 3 weeks vs untreated controls, 100% = plants have died
Procedure, shortened: (§9)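 Visual percent activity versus untreated controls, read about 3 weeks after treatment, where 100% means dead plants and 0% means control-like growth. Compound (WP or EC, 0.5% additive, 600 L/ha water) was sprayed onto the covering soil over freshly sown weed seeds in sandy loam, then kept in a greenhouse.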

Digitaria sanguinalis [19] = assay: Pre-emergence herbicide efficacy at 320 g/ha, DIGSA; settings: scored visually after about 3 weeks vs untreated controls, 100% = plants have died
Procedure, shortened: as §9

Echinochloa crus-galli [20] = assay: Pre-emergence herbicide efficacy at 320 g/ha, ECHCG; settings: scored visually after about 3 weeks vs untreated controls, 100% = plants have died
Procedure, shortened: as §9

Kochia scoparia [21] = assay: Pre-emergence herbicide efficacy at 320 g/ha, KCHSC; settings: scored visually after about 3 weeks vs untreated controls, 100% = plants have died
Procedure, shortened: as §9

Poa annua [22] = assay: Pre-emergence herbicide efficacy at 320 g/ha, POAAN; settings: scored visually after about 3 weeks vs untreated controls, 100% = plants have died
Procedure, shortened: as §9

Setaria viridis [23] = assay: Pre-emergence herbicide efficacy at 320 g/ha, SETVI; settings: scored visually after about 3 weeks vs untreated controls, 100% = plants have died
Procedure, shortened: as §9

Stellaria media [24] = assay: Pre-emergence herbicide efficacy at 320 g/ha, STEME; settings: scored visually after about 3 weeks vs untreated controls, 100% = plants have died
Procedure, shortened: as §9

Veronica persica [25] = assay: Pre-emergence herbicide efficacy at 320 g/ha, VERPE; settings: scored visually after about 3 weeks vs untreated controls, 100% = plants have died
Procedure, shortened: as §9

Amaranthus retroflexus [26] = assay: Pre-emergence herbicide efficacy at 80 g/ha, AMARE; settings: scored visually after about 3 weeks vs untreated controls, 100% = plants have died
Procedure, shortened: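 Pre-emergence soil-surface spray over freshly sown, soil-covered seeds; WP/EC formulation, 0.5% additive, 600 l/ha water volume. Greenhouse, ~3 wk. Readout: visual % efficacy vs untreated (0% = control-like, 100% = dead).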

Digitaria sanguinalis [27] = assay: Pre-emergence herbicide efficacy at 80 g/ha, DIGSA; settings: scored visually after about 3 weeks vs untreated controls, 100% = plants have died
From the text: as §2
(§10) Seeds of monocotyledonous and dicotyledonous weed plants and crop plants were placed in plastic or organic planting pots and covered with soil. The compounds of the invention, formulated in the form of wettable powders (WP) or as emulsion concentrates (EC), were then applied to the surface of the covering soil as aqueous suspension or emulsion with addition of 0.5% additive at a water application rate equivalent to 600 l/ha. After the treatment, the pots were placed in a greenhouse and kept under good growth conditions for the test plants. After about 3 weeks, the efficacy of the preparations was scored visually in comparison with untreated controls as percentages. For example, 100% activity=the plants have died, 0% activity=like control plants.
(§11) Tables D1 to D12 below show the effects of selected compounds of the general formula (I) according to Table 1 on various harmful plants and an application rate corresponding to 80 g/ha, which were obtained by the experimental procedure mentioned above.

Setaria viridis [28] = assay: Pre-emergence herbicide efficacy at 80 g/ha, SETVI
From the text: as §2, §10, §11

Veronica persica [29] = assay: Pre-emergence herbicide efficacy at 80 g/ha, VERPE
From the text: as §2, §10, §11

Viola tricolor [30] = assay: Pre-emergence herbicide efficacy at 80 g/ha, VIOTR
From the text: as §2, §10, §11

Fc1cccc(Nc2ncc(Cl)cn2)c1-c1cc(C(F)F)no1 [Example 1-33]
Post-emergence efficacy at 320 g/ha against ABUTH in % (Abutilon theophrasti [1]): 100% | Post-emergence efficacy at 320 g/ha against ALOMY in % (Alopecurus myosuroides [2]): 100% | Post-emergence efficacy at 320 g/ha against AMARE in % (Amaranthus retroflexus [3]): 100% | Post-emergence efficacy at 320 g/ha against DIGSA in % (Digitaria sanguinalis [4]): 100% | Post-emergence efficacy at 320 g/ha against ECHCG in % (Echinochloa crus-galli [5]): 100% | Post-emergence efficacy at 320 g/ha against KCHSC in % (Kochia scoparia [6]): 100% | Post-emergence efficacy at 320 g/ha against POAAN in % (Poa annua [7]): 100% | Post-emergence efficacy at 320 g/ha against STEME in % (Stellaria media [8]): 100% | Post-emergence efficacy at 320 g/ha against VERPE in % (Veronica persica [9]): 100% | Post-emergence efficacy at 80 g/ha against ABUTH in % (Abutilon theophrasti [10]): 80% | Post-emergence efficacy at 80 g/ha against AMARE in % (Amaranthus retroflexus [11]): 100% | Post-emergence efficacy at 80 g/ha against KCHSC in % (Kochia scoparia [12]): 100% | Post-emergence efficacy at 80 g/ha against SETVI in % (Setaria viridis [13]): 100% | Post-emergence efficacy at 80 g/ha against VERPE in % (Veronica persica [14]): 100% | Post-emergence efficacy at 80 g/ha against VIOTR in % (Viola tricolor [15]): 100% | Pre-emergence efficacy at 320 g/ha against ABUTH in % (Abutilon theophrasti [16]): 100% | Pre-emergence efficacy at 320 g/ha against ALOMY in % (Alopecurus myosuroides [17]): 100% | Pre-emergence efficacy at 320 g/ha against AMARE in % (Amaranthus retroflexus [18]): 100% | Pre-emergence efficacy at 320 g/ha against DIGSA in % (Digitaria sanguinalis [19]): 100% | Pre-emergence efficacy at 320 g/ha against ECHCG in % (Echinochloa crus-galli [20]): 100% | Pre-emergence efficacy at 320 g/ha against KCHSC in % (Kochia scoparia [21]): 100% | Pre-emergence efficacy at 320 g/ha against POAAN in % (Poa annua [22]): 100% | Pre-emergence efficacy at 320 g/ha against SETVI in % (Setaria viridis [23]): 100% | Pre-emergence efficacy at 320 g/ha against STEME in % (Stellaria media [24]): 100% | Pre-emergence efficacy at 320 g/ha against VERPE in % (Veronica persica [25]): 100% | Pre-emergence efficacy at 80 g/ha against AMARE in % (Amaranthus retroflexus [26]): 100% | Pre-emergence efficacy at 80 g/ha against DIGSA in % (Digitaria sanguinalis [27]): 90% | Pre-emergence efficacy against SETVI (Setaria viridis [28]): 100% | Pre-emergence efficacy against VERPE (Veronica persica [29]): 90% | Pre-emergence efficacy against VIOTR (Viola tricolor [30]): 90%

From US20250311727A1, “SUBSTITUTED 2-AMINOAZINES AND SALTS THEREOF, AND USE THEREOF AS HERBICIDAL ACTIVE SUBSTANCES” (BAYER AKTIENGESELLSCHAFT, priority 2022, published 2025)
